Counter-ions that a name gives are not always drawn.
Assays:
human EP1 receptor [1] = target: T1, human EP1 receptor (Homo sapiens, UniProt P34995); assay: Binding assay for the human prostanoid EP1 receptor (competition with [3H]-PGE2); details: binding to human EP1 receptor, [3H]-PGE2 competition, CHO-K1 cell membranes; averages of a number of experiments; read-out: pIC50 value (converted)
T1 construct: expressed in transfected cells; host or cells: CHO-K1
T1 sequence (P34995 1-402): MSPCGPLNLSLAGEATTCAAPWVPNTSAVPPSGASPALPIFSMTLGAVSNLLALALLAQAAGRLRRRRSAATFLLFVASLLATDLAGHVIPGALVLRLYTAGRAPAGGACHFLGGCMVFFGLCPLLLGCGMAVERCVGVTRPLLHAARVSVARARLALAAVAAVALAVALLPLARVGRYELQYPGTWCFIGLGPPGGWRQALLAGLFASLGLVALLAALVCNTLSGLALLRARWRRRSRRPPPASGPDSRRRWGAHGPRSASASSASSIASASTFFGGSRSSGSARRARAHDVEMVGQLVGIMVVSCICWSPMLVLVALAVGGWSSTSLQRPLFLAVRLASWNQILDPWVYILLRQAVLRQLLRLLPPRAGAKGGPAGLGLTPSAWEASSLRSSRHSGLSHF
Description: Competition assay using [^3H]-PGE2.
Compound potencies are determined using a radioligand binding assay. In this assay compound potencies are determined from their ability to compete with tritiated prostaglandin E2 ([^3H]-PGE2) for binding to the human EP1 receptor.
This assay utilises Chinese hamster ovary-K1 (CHO-K1) cells into which a stable vector containing the EP1 cDNA has previously been transfected. Cells are cultured in suitable flasks containing culture medium such as DMEM:F-12 supplemented with 10% v/v foetal calf serum, 2 mM L-glutamine, 0.25 mg/ml geneticin, 10 μg/ml puromycin and 10 μM indomethacin.
Cells are detached from the culture flasks by incubation in calcium and magnesium free phosphate buffered saline containing 1 mM disodium ethylenediaminetetraacetic acid (Na2EDTA) and 10 μM indomethacin for 5 min. The cells are isolated by centrifugation at 250×g for 5 mins and suspended in an ice cold buffer such as 50 mM Tris, 1 mM Na2EDTA, 140 mM NaCl, 10 μM indomethacin (pH 7.4). The cells are homogenised using a Polytron tissue disrupter (2×10 s burst at full setting), centrifuged at 48,000×g for 20 mins and the pellet containing the membrane fraction is washed (optional) three times by suspension and centrifugation at 48,000×g for 20 mins. The final membrane pellet is suspended in an assay buffer such as 10 mM 2-[N-morpholino]ethanesulphonic acid, 1 mM Na2EDTA, 10 mM MgCl2 (pH 6). Aliquots are frozen at −80° C. until required.
For the binding assay the cell membranes, competing compounds and [^3H]-PGE2 (3 nM final assay concentration) are incubated in a final volume of 100 μl for 30 min at 30° C. All reagents are prepared in assay buffer. Reactions are terminated by rapid vacuum filtration over GF/B filters using a Brandell cell harvester. The filters are washed with ice cold assay buffer, dried and the radioactivity retained on the filters is measured by liquid scintillation counting in Packard TopCount scintillation counter.
The data are analysed using non linear curve fitting techniques to determine the concentration of compound producing 50% inhibition of specific binding (IC50).

human EP1 receptor [2] = target: T1, human EP1 receptor; assay: human EP1 calcium mobilisation assay; type: cell-based; details: human EP1, PGE2-induced calcium mobilisation in CHO-K1 cells; free bases or sodium salts; averages of a number of experiments; read-out: functional pKi value (converted)
Outline: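 CHO-K1 cells stably expressing human EP1, loaded with Fluo-4 after 24 h at 37° C; compounds added before PGE2 challenge. Inhibition of PGE2-induced [Ca2+]i rise read by FLIPR fluorescence; pIC50 from curve fitting of half-maximal inhibition.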

Structure (SMILES)	IC50 (human EP1 receptor [1])	Ki (human EP1 receptor [2])
O=C(O)c1ccc(Cc2cc(Cl)ccc2OCC2CC2)o1 [Example 3, Sodium 5-({5-chloro-2-[(cyclopropylmethyl)oxy]phenyl}methyl)-2-furancarboxylate]	≤ 10 nM	< 1000 nM
O=C(O)c1ccc(Cc2cc(Cl)ccc2OC2CCCC2)o1 [Example 5, Sodium 5-{[5-chloro-2-(cyclopentyloxy)phenyl]methyl}-2-furancarboxylate]	≤ 10 nM	≤ 10 nM
O=C(O)c1ccc(Cc2cc(Cl)ccc2OCC2CCCCC2)o1 [Example 6, Sodium 5-({5-chloro-2-[(cyclohexylmethyl)oxy]phenyl}methyl)-2-furancarboxylate]	≤ 10 nM	< 1000 nM
CCC(CC)COc1ccc(Cl)cc1Cc1ccc(C(=O)O)o1 [Example 7, Sodium 5-({5-chloro-2-[(2-ethylbutyl)oxy]phenyl}methyl)-2-furancarboxylate]	≤ 10 nM	≤ 10 nM
CC(C)COc1ccc(Cl)cc1Cc1ccc(C(=O)O)o1 [Example 10, Sodium 5-({5-chloro-2-[(2-methylpropyl)oxy]phenyl}methyl)-2-furancarboxylate]	≤ 10 nM	< 1000 nM
Cc1cc(C(=O)O)oc1Cc1cc(Cl)ccc1OCc1ccccc1 [Example 15, Sodium 5-({5-chloro-2-[(phenylmethyl)oxy]phenyl}methyl)-4-methyl-2-furancarboxylate]	≤ 10 nM	≤ 10 nM
O=C(O)c1ccc(Cc2cc(Cl)ccc2OCc2ccccc2)o1 [Example 18, Sodium 5-({5-chloro-2-[(phenylmethyl)oxy]phenyl}methyl)-2-furancarboxylate]	≤ 10 nM	≤ 10 nM
O=C(O)c1ccc(Cc2cc(Cl)ccc2OCc2ccc(F)cc2F)o1 [Example 19, Sodium 5-[(5-chloro-2-{[(2,4-difluorophenyl)methyl]oxy}phenyl)methyl]-2-furancarboxylate]	≤ 10 nM	< 1000 nM
O=C(O)c1ccc(Cc2cc(Cl)ccc2OCc2c(F)cc(F)cc2F)o1 [Example 20, Sodium 5-[(5-chloro-2-{[(2,4,6-trifluorophenyl)methyl]oxy}phenyl)methyl]-2-furancarboxylate]	≤ 10 nM	< 1000 nM
O=C(O)c1ccc(Cc2cc(Cl)ccc2OCc2ccc(F)cc2)o1 [Example 21, Sodium 5-[(5-chloro-2-{[(4-fluorophenyl)methyl]oxy}phenyl)methyl]-2-furancarboxylate]	≤ 10 nM	≤ 10 nM
O=C(O)c1ccc(Cc2cc(Cl)ccc2OCc2ccc(F)cc2Cl)o1 [Example 22, Sodium 5-[(5-chloro-2-{[(2-chloro-4-fluorophenyl)methyl]oxy}phenyl)methyl]-2-furancarboxylate]	≤ 10 nM	≤ 10 nM
O=C(O)c1ccc(Cc2cc(Cl)ccc2OCc2ccc(Cl)cc2F)o1 [Example 23, Sodium 5-[(5-chloro-2-{[(4-chloro-2-fluorophenyl)methyl]oxy}phenyl)methyl]-2-furancarboxylate]	≤ 10 nM	≤ 10 nM
O=C(O)c1ccc(Cc2cc(Cl)ccc2OCc2cc(F)c(F)cc2F)o1 [Example 25, Sodium 5-[(5-chloro-2-{[(2,4,5-trifluorophenyl)methyl]oxy}phenyl)methyl]-2-furancarboxylate]	≤ 10 nM	≤ 10 nM
O=C(NS(=O)(=O)c1ccccc1)c1ccc(Cc2cc(Cl)ccc2OCc2ccc(F)cc2F)o1 [Example 35, 5-[(5-Chloro-2-{[(2,4-difluorophenyl)methyl]oxy}phenyl)methyl]-N-(phenylsulfonyl)-2-furancarboxamide]	≤ 10 nM	≤ 10 nM
O=C(Nc1c(F)cccc1F)c1ccc(Cc2cc(Cl)ccc2OCc2ccc(F)cc2F)o1 [Example 36, 5-[(5-Chloro-2-{[(2,4-difluorophenyl)methyl]oxy}phenyl)methyl]-N-(2,6-difluorophenyl)-2-furancarboxamide]	≤ 10 nM	≤ 10 nM
CC(C)COc1ccc(Cl)cc1Cc1ccc(C(=O)NCc2ccccc2)o1 [Example 57, 5-({5-Chloro-2-[(2-methylpropyl)oxy]-phenyl}methyl)-N-(phenylmethyl)-2-furancarboxamide]	≤ 10 nM	≤ 10 nM
O=C(Nc1c(F)cccc1F)c1ccc(Cc2cc(Cl)ccc2OCc2ccc(Cl)cc2F)o1 [Example 84, 5-[(5-Chloro-2-{[(4-chloro-2-fluorophenyl)methyl]oxy}-phenyl)methyl]-N-(2,6-difluorophenyl)-2-furancarboxamide]	≤ 10 nM	< 1000 nM
CC(C)COc1ccc(Cl)cc1Cc1ccc(-c2nc3ccccc3[nH]2)o1 [Example 98, 2-[5-({5-Chloro-2-[(2-methylpropyl)oxy]phenyl}methyl)-2-furanyl]-1H-benzimidazole]	≤ 10 nM	≤ 10 nM
Clc1ccc(OCc2ccccc2)c(Cc2ccc(-c3nc4ccccc4[nH]3)o2)c1 [Example 99, 2-[5-({5-Chloro-2-[(phenylmethyl)oxy]phenyl}methyl)-2-furanyl]-1H-benzimidazole]	≤ 10 nM	< 1000 nM
COc1nccc2[nH]c(-c3ccc(Cc4cc(Cl)ccc4OCC(C)C)o3)nc12 [Example 104, 2-[5-({5-Chloro-2-[(2-methylpropyl)oxy]-phenyl}methyl)-2-furanyl]-4-(methyloxy)-1H-imidazo[4,5-c]pyridine]	≤ 10 nM	≤ 10 nM
COc1ccc2[nH]c(-c3ccc(Cc4cc(Cl)ccc4OCC(C)C)o3)nc2c1 [Example 105, 2-[5-({5-Chloro-2-[(2-methylpropyl)oxy]-phenyl}methyl)-2-furanyl]-5-(methyloxy)-1H-benzimidazole]	≤ 10 nM	< 1000 nM
CC(C)COc1ccc(Cl)cc1Cc1ccc(-c2nc3nccnc3[nH]2)o1 [Example 106, 2-[5-({5-Chloro-2-[(2-methylpropyl)oxy]-phenyl}methyl)-2-furanyl]-1H-imidazo[4,5-b]pyrazine]	≤ 10 nM	≤ 10 nM
CC(C)COc1ccc(Cl)cc1Cc1ccc(-c2nc3cc4cnn(C)c4cc3[nH]2)o1 [Example 107, 6-[5-({5-Chloro-2-[(2-methylpropyl)oxy]-phenyl}methyl)-2-furanyl]-1-methyl-1,5-dihydroimidazo[4,5-f]indazole]	≤ 10 nM	< 1000 nM
CC(C)COc1ccc(Cl)cc1Cc1ccc(-c2nc3c(F)cccc3[nH]2)o1 [Example 108, 2-[5-({5-Chloro-2-[(2-methylpropyl)oxy]-phenyl}methyl)-2-furanyl]-4-fluoro-1H-benzimidazole]	≤ 10 nM	< 1000 nM
CC(C)COc1ccc(Cl)cc1Cc1ccc(-c2nc3cc(CN(C)C)cnc3[nH]2)o1 [Example 164, ({2-[5-({5-Chloro-2-[(2-methylpropyl)oxy]-phenyl}methyl)-2-furanyl]-1H-imidazo[4,5-b]pyridin-6-yl}methyl)dimethyl-amine dihydrochloride]	–	< 1000 nM
CC(C)COc1ccc(Cl)cc1Cc1ccc(-c2nc3cc(CN4CCCC4)cnc3[nH]2)o1 [Example 165, 2-[5-({5-Chloro-2-[(2-methylpropyl)oxy]-phenyl}methyl)-2-furanyl]-6-(1-pyrrolidinylmethyl)-1H-imidazo[4,5-b]pyridinedihydrochloride]	–	< 1000 nM
CC(C)COc1ccc(Cl)cc1Cc1ccc(-c2ncc[nH]2)o1 [Example 167, 2-[5-({5-Chloro-2-[(2-methylpropyl)oxy]phenyl}methyl)-2-furanyl]-1H-imidazole]	–	≤ 10 nM
CC(C)COc1ccc(Cl)cc1Cc1ccc(-c2cc[nH]n2)o1 [Example 168]	–	< 1000 nM
Clc1ccc(OCc2ccccc2)c(Cc2ccc(-c3nnc[nH]3)o2)c1 [Example 169, 3-[5-({5-Chloro-2-[(phenylmethyl)oxy]phenyl}methyl)-2-furanyl]-1H-1,2,4-triazole]	–	< 1000 nM
